Measured values as given in PubChem BioAssay (NCI).
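Test compounds were applied to cells in 96-well plates for 48 hours at 5 doses. At the GI50, growth is halved. TGI denotes the concentration required for complete inhibition of growth.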

Tests used:
Test in all cases: NCI tumour cell line growth inhibition, 48 h; in the data active means GI50 below about 0.43 µM; inactive means the rest
[1] = test system: NCI-H460 lung
[2] = test system: RPMI-8226 leukemia
[3] = test system: 786-0 renal
[4] = test system: HL-60(TB) leukemia
[5] = test system: SW-620 colon
[6] = test system: TK-10 renal
[7] = test system: HOP-92 NSCLC
[8] = test system: SK-OV-3 ovarian
[9] = test system: U251 CNS
[10] = test system: SF-539 CNS
[11] = test system: RXF-631 renal
[12] = test system: M19-MEL melanoma
[13] = test system: SK-MEL-2 melanoma
[14] = test system: COLO 205 colon
[15] = test system: EKVX NSCLC
[16] = test system: MALME-3M melanoma
[17] = test system: K-562 leukemia
[18] = test system: DLD-1 colon
[19] = test system: UACC-62 melanoma
[20] = test system: A549 NSCLC
[21] = test system: OVCAR-3 ovarian
[22] = test system: KM20L2 colon
[23] = test system: CCRF-CEM leukemia
[24] = test system: SK-MEL-5 melanoma
[25] = test system: RXF 393 renal
[26] = test system: KM12 colon
[27] = test system: SNB-19 CNS
[28] = test system: M14 melanoma
[29] = test system: NCI-H23 lung
[30] = test system: NCI-H226 lung
[31] = test system: CAKI-1 renal
[32] = test system: SF-295 CNS
[33] = test system: HOP-62 NSCLC
[34] = test system: IGROV1 ovarian
[35] = test system: SF-268 CNS
[36] = test system: HT29 colon
[37] = test system: HCT-116 colon
[38] = test system: HOP-18 NSCLC
[39] = test system: OVCAR-5 ovarian
[40] = test system: MOLT-4 leukemia
[41] = test system: SNB-78 CNS
[42] = test system: DMS 114 small cell lung
[43] = test system: LOX IMVI melanoma
[44] = test system: UACC-257 melanoma
[45] = test system: DMS 273 small cell lung
[46] = test system: ACHN renal
[47] = test system: OVCAR-4 ovarian
[48] = test system: SN12C renal
[49] = test system: SR leukemia
[50] = test system: LXFL 529 NSCLC
[51] = test system: OVCAR-8 ovarian
[52] = test system: UO-31 renal
[53] = test system: SK-MEL-28 melanoma
[54] = test system: HCC-2998 colon

CC[O-].CC[O-].[O-]c1ccccc1C=NC12CC3CC(CC(C3)C1)C2.[O-]c1ccccc1C=NC12CC3CC(CC(C3)C1)C2.[Ti+4]
> 100 µM: TGI [1] | TGI [2] | TGI [3] | TGI [4] | TGI [5] | TGI [6] | TGI [7] | TGI [8] | TGI [9] | TGI [10] | TGI [11] | TGI [12] | TGI [13] | TGI [14] | TGI [15] | TGI [16] | TGI [17] | TGI [18] | TGI [19] | TGI [20] | TGI [21] | TGI [22] | TGI [23] | TGI [24] | TGI [25] | TGI [26] | TGI [27] | TGI [28] | TGI [29] | TGI [30] | TGI [31] | TGI [32] | TGI [33] | TGI [34] | TGI [35] | TGI [36] | TGI [37] | TGI [38] | TGI [39] | TGI [40] | TGI [41] | TGI [42] | TGI [43] | TGI [44] | TGI [45] | TGI [46] | TGI [47] | TGI [48] | TGI [49] | TGI [50] | TGI [51] | TGI [52] | TGI [53] | TGI [54]
inactive: GI50 [1] > 100 µM | GI50 [2] 57.6 µM | GI50 [3] > 100 µM | GI50 [4] 52.4 µM | GI50 [5] > 100 µM | GI50 [6] > 100 µM | GI50 [7] 34.4 µM | GI50 [8] > 100 µM | GI50 [9] > 100 µM | GI50 [10] > 100 µM | GI50 [11] 29.4 µM | GI50 [12] > 100 µM | GI50 [13] 35.8 µM | GI50 [14] 67.3 µM | GI50 [15] > 100 µM | GI50 [16] 64.2 µM | GI50 [17] 31.4 µM | GI50 [18] 11.1 µM | GI50 [19] 19.6 µM | GI50 [20] > 100 µM | GI50 [21] > 100 µM | GI50 [22] 45.6 µM | GI50 [23] 11 µM | GI50 [24] 19.9 µM | GI50 [25] 53.9 µM | GI50 [26] > 100 µM | GI50 [27] > 100 µM | GI50 [28] > 100 µM | GI50 [29] 50 µM | GI50 [30] > 100 µM | GI50 [31] > 100 µM | GI50 [32] > 100 µM | GI50 [33] > 100 µM | GI50 [34] > 100 µM | GI50 [35] 92.5 µM | GI50 [36] > 100 µM | GI50 [37] 39.6 µM | GI50 [38] 85.5 µM | GI50 [39] > 100 µM | GI50 [40] > 100 µM | GI50 [41] > 100 µM | GI50 [42] 23.4 µM | GI50 [43] 57.8 µM | GI50 [44] > 100 µM | GI50 [45] > 100 µM | GI50 [46] > 100 µM | GI50 [47] > 100 µM | GI50 [48] 86.4 µM | GI50 [49] 29.2 µM | GI50 [50] 23.5 µM | GI50 [51] > 100 µM | GI50 [52] 92.3 µM | GI50 [53] > 100 µM | GI50 [54] > 100 µM
